Test results: patent publication US20220073496A1, “NOVEL QUINOLINE DERIVATIVE INHIBITOR” (Nanjing Transthera Biosciences Co., Ltd., priority 2018, published 2022)
Read-outs that look alike come from different tables or passages of the source.

Tests used:
[1] = target: T1, CSF1R (h) (Homo sapiens, UniProt P07333); experiment: Enzymatic activity test, CSF1R (h); assay type: biochemical; conditions: 10 μM [γ-33P]-ATP, 40 minutes, room temperature
T1 construct: purchased
Method: Assay 3: Enzymatic Activity Test of the Compounds of the Present Invention
Test substances: the compounds of the present invention, wherein the structures and preparations thereof were as described above.
(1) Preparation of the Compound Stock Solution
The compound was dissolved in 100% DMSO to prepare a stock solution with a maximum concentration of 500 μM.
(2) Preparation of the Compound Working Solution
The compound stock solution was diluted to final concentrations of 500, 150, 50, 15, 5, 1.5, 0.5, 0.15 and 0.05 μM to become the compound working solutions (50×).
(3) Preparation of Different Enzyme Reaction Solutions
The enzymatic reaction was activated by using 10 mM magnesium acetate and 10 μM [γ-^33P]-ATP to form an Mg/ATP mixed solution.
In a 384-well plate, the compound working solution was added to final concentrations of 10000, 3000, 1000, 300, 100, 30, 10, 3, and 1 nM. Then different enzyme reaction solutions prepared according to the above conditions were added. The incubation was carried out for 40 minutes at room temperature. The test was terminated by the addition of a 0.5% phosphoric acid solution. 10 μL of the reaction solution was taken and dropped to the P30 filter paper. […] The grayscale analysis of the results was performed using Image J software and the IC50 values were calculated using GraphPad 5.0 software.

[2] = Rat PK evaluation; assay type: in vivo; conditions: SD rats; for Vz_obs iv (apparent distribution volume) / bioavailability / AUC(0-t) / clearance / half-life: n = 3; for bioavailability / AUC(0-t) / clearance / half-life / Tmax: rat, plasma; for bioavailability: read-out: F % (absolute bioavailability); for clearance: read-out: Cl_obs iv (clearance rate) (converted); for Tmax: n = 3, median, read-out: Tmax po (time to peak plasma concentration)
Method: Assay 2: Rat PK Evaluation for the Compounds of the Present Invention
Animal Administration and Sample Collection:
(§1) The test compounds 14, 15, 16, 20, 29, 30, 31, 32, 33, 34, 36, 37, 47 and 48 were dissolved in 5% DMSO+20% (30% solutol)+75% saline to prepare the compound solutions. Each of the compound solutions was intragastrically administered to SD rats at a dose of 5.0 mg/kg. The time points of blood collection were: 15 minutes, 30 minutes, 1 hour, 2 hours, 4 hours, 6 hours, 8 hours, 24 hours, 30 hours, and 48 hours.
The test compounds 38, 39, 40 and 41 were dissolved in 5% NMP+5% Tween-80+90% saline to prepare the compound solutions. Each of the compound solutions was intragastrically administered to SD rats at a dose of 5.0 mg/kg. The time points of blood collection were: 15 minutes, 30 minutes, 1 hour, 2 hours. 4 hours, 6 hours, 8 hours, 24 hours, 30 hours, and 48 hours.
as §1, with “was” for “was intragastrically”, “administered by intravenous bolus injection” for “administered”, “1” for “5.0”, “were: 5 minutes,” for “were:”, “hours,” for “hours, 30 hours,”
The test compounds 38, 39, 40 and 41 were dissolved in 5% NMP+5% Tween-80+90% saline to prepare the compound solutions. Each of the compound solutions was administered by intravenous bolus injection to SD rats at a dose of 1 mg/kg. The time points of blood collection were: 5 minutes, 15 minutes, 30 minutes, 1 hour, 2 hours, 4 hours, 6 hours, 8 hours, 24 hours, and 48 hours.
The animal was fixed. The tail was heated in a water bath pot 10 minutes before each time point. About 100 μL of blood was collected through the tail vein. The blood was collected and placed in an anti-coagulation tube containing EDTA-K2. The blood sample was centrifuged at 8000 rpm for 6 minutes at 4° C. to obtain a plasma sample. The plasma was prepared within 30 minutes after the blood collection. The plasma was stored in a −80° C. refrigerator before testing.
The sample to be tested was taken out from the −80° C. refrigerator, naturally melted at room temperature and vortexed for 5 minutes. 20 μL of plasma sample was accurately pipetted into a 1.5 mL centrifuge tube. 200 μL of an internal standard working solution (a solution of tolbutamide in methanol) having a concentration of 100 ng/mL was added and mixed well. The mixture was vortexed for 5 minutes, and centrifuged at 12000 rpm for 5 minutes. 50 μL of the supernatant was accurately pipetted into a 96-well plate pre-filled with 150 μL/well of water. The plate was vortexed for 5 minutes and mixed well, and then the LC-MS/MS determination and analysis were performed.
The concentration of the test substance was output using Analyst 1.6.3 from AB Company. Parameters such as mean, standard deviation, and coefficient of variation were calculated with Microsoft Excel (direct outputs from Analyst 1.6.3 were not calculated), and the PK parameters were calculated using Pharsight Phoenix 6.1 software NCA (Tmax was the median).

[3] = IV 1 mg/kg, read-out: AUClast iv (area under the drug-time curve from 0 to 48 hours)
[4] = IV 1 mg/kg, read-out: tz1/2 iv (terminal elimination half-life) (converted)
[5] = PO 5 mg/kg, read-out: AUClast po (area under the drug-time curve from 0 to 48 hours)
[6] = PO 5 mg/kg, read-out: tz1/2 po (terminal elimination half-life) (converted)

T1 sequence (P07333 20-972): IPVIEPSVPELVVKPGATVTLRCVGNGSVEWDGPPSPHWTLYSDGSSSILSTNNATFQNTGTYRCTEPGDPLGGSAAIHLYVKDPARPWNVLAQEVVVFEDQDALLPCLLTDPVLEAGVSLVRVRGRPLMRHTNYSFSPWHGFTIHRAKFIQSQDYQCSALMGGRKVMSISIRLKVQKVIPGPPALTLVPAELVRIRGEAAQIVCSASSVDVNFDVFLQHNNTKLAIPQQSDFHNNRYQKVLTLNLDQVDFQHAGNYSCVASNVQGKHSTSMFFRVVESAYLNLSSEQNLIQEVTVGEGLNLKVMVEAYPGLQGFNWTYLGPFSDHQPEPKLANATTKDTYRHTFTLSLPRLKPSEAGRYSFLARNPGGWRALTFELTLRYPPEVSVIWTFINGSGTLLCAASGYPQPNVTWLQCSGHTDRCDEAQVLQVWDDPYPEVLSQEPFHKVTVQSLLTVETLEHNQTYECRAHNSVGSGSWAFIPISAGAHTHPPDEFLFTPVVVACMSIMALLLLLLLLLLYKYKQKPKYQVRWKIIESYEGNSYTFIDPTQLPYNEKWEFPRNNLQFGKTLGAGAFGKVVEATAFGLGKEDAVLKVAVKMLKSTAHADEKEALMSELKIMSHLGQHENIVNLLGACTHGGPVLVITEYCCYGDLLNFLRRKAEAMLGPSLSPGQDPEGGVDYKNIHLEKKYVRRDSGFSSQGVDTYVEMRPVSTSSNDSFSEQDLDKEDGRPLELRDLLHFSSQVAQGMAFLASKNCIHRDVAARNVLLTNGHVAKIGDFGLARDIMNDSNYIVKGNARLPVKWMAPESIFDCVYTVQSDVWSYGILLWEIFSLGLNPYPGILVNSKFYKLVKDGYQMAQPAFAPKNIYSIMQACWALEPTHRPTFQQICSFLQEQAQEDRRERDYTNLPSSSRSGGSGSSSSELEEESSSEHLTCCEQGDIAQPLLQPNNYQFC

Row | Structure (SMILES) | IC50 [1] [µM] | Vz_obs iv (apparent distribution volume) ([2]; IV 1 mg/kg) [L/kg] | bioavailability ([2]; IV 1 mg/kg, PO 5 mg/kg) [%] | AUC(0-t) [2, 3] [µg·h/mL] | clearance ([2]; IV 1 mg/kg) [L/h/kg] | half-life [2, 4] [h] | Tmax ([2]; PO 5 mg/kg) [h] | AUC(0-t) [2, 5] [µg·h/mL] | half-life [2, 6] [h]
1 | COc1cc2nccc(Oc3ccc(NC(=O)c4cn(C(C)C)cc(-c5ccc(C)cc5)c4=O)nc3)c2cc1OC [Compound 1, N-(5-((6,7-dimethoxyquinolin-4-yl)oxy)pyridin-2-yl)-1-isopropyl-4-oxo-5-p-tolyl-1,4-dihydropyridin-3-carboxamide] | 0.2 | – | – | – | – | – | – | – | –
2 | COc1cc2nccc(Oc3ccc(NC(=O)c4cn(C(C)C)cc(-c5ccc(F)cc5)c4=O)nc3)c2cc1OC [Compound 14, N-(5-((6,7-dimethoxyquinolin-4-yl)oxy)pyridin-2-yl)-5-(4-fluorophenyl)-1-isopropyl-4-oxo-1,4-dihydropyridin-3-carboxamide] | 0.055 | 0.25 | 63.2 | 34.9 | 0.027 | 6.3 | 2 | 110 | 12.1
3 | COc1cc2nccc(Oc3ccc(NC(=O)c4nn(C(C)C)cc(-c5ccc(F)cc5)c4=O)nc3)c2cc1OC [Compound 15, N-(5-((6,7-dimethoxyquinolin-4-yl)oxy)pyridin-2-yl)-5-(4-fluorophenyl)-1-isopropyl-4-oxo-1,4-dihydropyridazine-3-carboxamide] | 0.038 | 1.23 | 78.9 | 18.1 | 0.047 | 18.5 | – | 67.4 | 20.5
4 | COc1cc2nccc(Oc3cnc(NC(=O)c4nn(C(C)C)cc(-c5ccc(F)cc5)c4=O)nc3)c2cc1OC [Compound 16, N-(5-((6,7-dimethoxyquinolin-4-yl)oxy)pyrimidine-2-yl)-5-(4-fluorophenyl)-1-isopropyl-4-oxo-1,4-dihydropyridazine-3-carboxamide] | 0.061 | 0.12 | 35.6 | 48.6 | 0.021 | 4.13 | 1 | 86.4 | 5.67
5 | COc1cc2nccc(Oc3cnc(NC(=O)c4cn(C(C)C)cc(-c5ccc(F)cc5)c4=O)nc3)c2cc1OC [Compound 20, N-(5-((6,7-dimethoxyquinolin-4-y)oxy)pyrimidine-2-yl)-5-(4-fluorophenyl)-1-isopropyl-4-oxo-1,4-dihydropyridin-3-carboxamide] | 0.078 | 0.18 | 53.3 | 29.1 | 0.04 | 3.1 | 6 | 77.9 | 5.4
6 | COc1cc2nccc(Oc3ccc(NC(=O)c4nn(C(C)C)cc(-c5ccc(F)cc5)c4=O)cn3)c2cc1OC [Compound 29, N-(6-((6,7-dimethoxyquinolin-4-yl)oxy)pyridin-3-yl)-1-isopropyl-4-oxo-5-para-fluorophenyl-1,4-dihydropyridazine-3-carboxamide] | 0.051 | 0.42 | 59.1 | 78.6 | 0.036 | 13.7 | 4 | 246 | 12.2
7 | COc1cc2nccc(Oc3ccc(NC(=O)c4cn(C5CC5)cc(-c5ccc(F)cc5)c4=O)nc3)c2cc1OC [Compound 30, N-(5-((6,7-dimethoxyquinolin-4-yl)oxy)pyridin-2-yl)-1-cyclopropyl-4-oxo-5-para-fluorophenyl-1,4-hydropyridin-3-carboxamide] | 0.061 | 0.30 | 78.7 | 41.4 | 0.024 | 8.68 | 6 | 152 | 13.4
8 | COc1cc2nccc(Oc3ccc(NC(=O)c4nn(C5CC5)cc(-c5ccc(F)cc5)c4=O)nc3)c2cc1OC [Compound 31] | 0.02 | 0.14 | 27.7 | 224 | 0.003 | 32.6 | 4 | 310 | 19.2
9 | COc1cc2nccc(Oc3cnc(NC(=O)c4cn(C5CC5)cc(-c5ccc(F)cc5)c4=O)nc3)c2cc1OC [Compound 32, 1-cyclopropyl-N-(5-((6,7-dimethoxyquinolin-4-yl)oxy)pyrimidine-2-yl)-5-(4-fluorophenyl)-4-oxo-1,4-dihydropyridin-3-carboxamide] | 0.093 | 0.23 | 75.4 | 23.9 | 0.045 | 3.74 | 4 | 90.5 | 5.04
10 | COc1cc2nccc(Oc3cnc(NC(=O)c4nn(C5CC5)cc(-c5ccc(F)cc5)c4=O)nc3)c2cc1OC [Compound 33] | 0.037 | 0.146 | 31.7 | 55.7 | 0.018 | 5.47 | 2 | 88.8 | 4.73
11 | COc1cc2nccc(Oc3ncc(NC(=O)c4nn(C5CC5)cc(-c5ccc(F)cc5)c4=O)cn3)c2cc1OC [Compound 37, 1-cyclopropyl-N-(2-((6,7-dimethoxyquinolin-4-yl)oxy)pyrimidine-5-yl)-5-para-fluorophenyl-4-oxo-1,4-dihydropyridazine-3-carboxamide] | – | 0.12 | 78.7 | 69.7 | 0.014 | 5.98 | 4 | 273 | 7.73
12 | COc1cc2nccc(Oc3ccc(NC(=O)c4cn(C(C)C)nc(-c5ccc(F)cc5)c4=O)nc3)c2cc1OC [Compound 41, N-(5-((6,7-dimethoxyquinolin-4-yl)oxy)pyridin-2-yl)-6-(4-fluorophenyl)-2-isopropyl-5-oxo-2,5-dihydropyridazine-4-carboxamide] | – | 6.81 | 103 | 2.75 | 0.35 | 14.1 | 4 | 14.4 | 13.7
